system: A-beta; experiment: Efficacy of compounds to inhibit A-beta concentration (% inhibition vs vehicle control); format: in vivo, rat; conditions: cortex
Description: Efficacious compounds of the present invention are those able to decrease the amount of A-beta produced compared to a control, where beta-secretase mediated cleavage is observed and measured in the absence of the compounds. Detection of efficacy can be by analysis of A-beta levels, for example, by immunoassay, fluorometric or chromogenic assay, HPLC, or other means of detection. The efficacy of the compounds of formula (I) was determined as a percentage inhibition corresponding to A-beta concentrations for tissue treated and untreated with compound.
The invention encompasses compounds of formula (I) that are efficacious.

In order of rising “Efficacy (% Inhibition, 100 mg/kg) cortex” value:
1. CC(=O)NC(Cc1cc(F)cc(F)c1)C(O)CNC1(c2cccc(C(C)(C)C)c2)CCC(NO)CC1 (single isomer, unassigned) [195-8 Diastereomer A, N-(4-(1-(3-tert-butylphenyl)-4-(hydroxyamino)cyclohexylamino)-1-(3,5-difluorophenyl)-3-hydroxybutan-2-yl)acetamide]  7%
2. CC(=O)NC(Cc1cc(F)cc(F)c1)C(O)CNC1(c2cccc(C(C)C)c2)CCC(=O)CC1 (stereo not shown) [Example 195-2, N-{1-(3,5-Difluoro-benzyl)-2-hydroxy-3-[1-(3-isopropyl-phenyl)-4-oxo-cyclohexylamino]-propyl}acetamide]  47%
3. CC(=O)NC(Cc1cc(F)cc(F)c1)C(O)CNC1(c2cccc(C(C)(C)C)c2)CCCCC1 (stereo not shown) [Example 195-1, N-[3-[1-(3-tert-Butyl-phenyl)-cyclohexylamino]-1-(3,5-difluoro-benzyl)-2-hydroxy-propyl]-acetamide]  62%

same assay, conditions: plasma

In order of falling “Efficacy (% Inhibition, 100 mg/kg) plasma” value:
1. CC(=O)NC(Cc1cc(F)cc(F)c1)C(O)CNC1(c2cccc(-n3cccn3)c2)CCCCC1 (stereo not shown) [Example 195-4, N-{1-(3,5-Difluoro-benzyl)-2-hydroxy-3-[1-(3-pyrazol-1-yl-phenyl)-cyclohexylamino]-propyl}-acetamide]  67%
2. CC(=O)NC(Cc1cc(F)cc(F)c1)C(O)CNC1(c2cccc(C(C)C)c2)CCC(=O)CC1 (stereo not shown) [Example 195-2, N-{1-(3,5-Difluoro-benzyl)-2-hydroxy-3-[1-(3-isopropyl-phenyl)-4-oxo-cyclohexylamino]-propyl}acetamide]  59%
3. CC(=O)NC(Cc1cc(F)cc(F)c1)C(O)CNC1(c2cccc(C(C)(C)C)c2)CCC(=O)CC1 (stereo not shown) [Example 195-3, N-[3-[1-(3-tert-Butyl-phenyl)-4-oxo-cyclohexylamino]-1-(3,5-difluoro-benzyl)-2-hydroxy-propyl]-acetamide]  58%
4. CC(=O)NC(Cc1cc(F)cc(F)c1)C(O)CNC1(c2cccc(C(C)(C)C)c2)CCC(O)CC1 (single isomer, unassigned) [195-5 Diastereomer A, N-[3-[1-(3-tert-Butyl-phenyl)-4-hydroxy-cyclohexylamino]-1-(3,5-difluoro-benzyl)-2-hydroxy-propyl]-acetamide]  55%
5. CONC1CCC(NCC(O)C(Cc2cc(F)cc(F)c2)NC(C)=O)(c2cccc(C(C)(C)C)c2)CC1 (single isomer, unassigned) [195-7 Diastereomer A, N-(4-(1-(3-tert-butylphenyl)-4-(methoxyamino)cyclohexylamino)-1-(3,5-difluorophenyl)-3-hydroxybutan-2-yl)acetamide]  50%
6. CC(=O)NC(Cc1cc(F)cc(F)c1)C(O)CNC1(c2cccc(C(C)(C)C)c2)CCCCC1 (stereo not shown) [Example 195-1, N-[3-[1-(3-tert-Butyl-phenyl)-cyclohexylamino]-1-(3,5-difluoro-benzyl)-2-hydroxy-propyl]-acetamide]  50%
7. COC1CCC(NCC(O)C(Cc2cc(F)cc(F)c2)NC(C)=O)(c2cccc(C(C)(C)C)c2)CC1 (stereo not shown) [Example 195-6, N-[3-[1-(3-tert-Butyl-phenyl)-4-methoxy-cyclohexylamino]-1-(3,5-difluoro-benzyl)-2-hydroxy-propyl]-acetamide]  49%
8. CSC1CCC(NCC(O)C(Cc2cc(F)cc(F)c2)NC(C)=O)(c2cccc(C(C)(C)C)c2)CC1 (stereo not shown) [Example 195-9, N-[3-[1-(3-tert-Butyl-phenyl)-4-methylsulfanyl-cyclohexylamino]-1-(3,5-difluoro-benzyl)-2-hydroxy-propyl]-acetamide]  38%
9. CC(=O)NC(Cc1cc(F)cc(F)c1)C(O)CNC1(c2cc(F)cc(C(C)(C)C)c2)CCCCC1 (stereo not shown) [Example 195-10, N-(4-(1-(3-tert-butyl-5-fluorophenyl)cyclohexylamino)-1-(3,5-difluorophenyl)-3-hydroxybutan-2-yl)acetamide]  30%

system: not listed separately; experiment: Oral bioavailability after IV and PO administration; format: in vivo; conditions: male, Sprague-Dawley, rat, plasma, read-out: Rat % F
Description: The invention encompasses compounds of formula (I) that are orally bioavailable. Oral bioavailability can be determined following both an intravenous (IV) and oral (PO) administration of a test compound.
Oral Bioavailability was determined in the male Sprague-Dawley rat following both IV and PO administration of test compound. Two month-old male rats (250-300 g) were surgically implanted with polyethylene (PE-50) cannula in the jugular vein while under isoflurane anesthesia the day before the in-life phase. Animals were fasted overnight with water ad libitum, then dosed the next day. The dosing regime consisted of either a 5 mg/kg (2.5 mL/kg) IV dose (N=3) administered to the jugular vein cannula, then flushed with saline, or a 10 mg/kg (5 mL/kg) PO dose (N=3) by esophageal gavage. Compounds were formulated with 10% Solutol in 5% dextrose at 2 mg/mL. […]
Compounds were extracted from samples following precipitation of the plasma proteins by methanol. […] Experimental samples were compared to calibration curves prepared in parallel with aged match rat plasma and quantitated with a weighted 1/x linear regression. […]
AUC is calculated from the linear trapezoidal rule by AUC=((C2+C1)/2)×(T2−T1) where C is concentration and T is time.
Pharmacokinetic parameters were calculated by a non-compartmental approach. […]

`CC(=O)NC(Cc1cc(F)cc(F)c1)C(O)CNC1(c2cccc(C(C)(C)C)c2)CCCCC1` (stereo not shown) [Example 197-1, N-[3-[1-(3-tert-Butyl-phenyl)-cyclohexylamino]-1-(3,5-difluoro-benzyl)-2-hydroxy-propyl]-acetamide] showed a bioavailability of 20.2%.

system: not listed separately; experiment: Brain uptake (brain penetration after IV administration); conditions: CF-1, mouse, in vivo, 10 μmol/kg
Description: The following assay was employed to determine the brain penetration of compounds encompassed by the present invention.
In-life phase: Test compounds were administered to CF-1 (20-30 g) mice at 10 μmol/kg (4 to 7 mg/kg) following IV administration in the tail vein. Two time-points, 5 and 60 min, were collected post dose. Four mice were harvested for heparinized plasma and non-perfused brains at each time-point for a total of 8 mice per compound.
Analytical phase: Samples were extracted and evaporated to dryness, then reconstituted and injected onto a reverse phase chromatographic column while monitoring the effluent with a triple quadrupole mass spectrometer. Quantitation was then performed with a 1/x^2 weighted fit of the least-squares regression from calibration standards prepared in parallel with the in vivo samples. The lower limit of quantitation (LOQ) is generally 1 ng/mL and 0.5 ng/g for the plasma and brain respectively. Data was reported in micromolar (μM) units. Brain levels were corrected for plasma volumes (16 μL/g).

In order of falling Kp at 5 min:
1. CC(=O)NC(Cc1cc(F)cc(F)c1)C(O)CNC1(c2cccc(C(C)(C)C)c2)CCCCC1 (stereo not shown) [Example 198-1, N-[3-[1-(3-tert-Butyl-phenyl)-cyclohexylamino]-1-(3,5-difluoro-benzyl)-2-hydroxy-propyl]-acetamide]  1.7
2. CC(=O)NC(Cc1cc(F)cc(F)c1)C(O)CNC1(c2cccc(-c3ccsc3)c2)CCCCC1 (stereo not shown) [Example 198-4, N-{1-(3,5-Difluoro-benzyl)-2-hydroxy-3-[1-(3-thiophen-3-yl-phenyl)-cyclohexylamino]-propyl}acetamide]  0.7
3. CC(=O)NC(Cc1cc(F)cc(F)c1)C(O)CNC1(c2cccc(C(C)C)c2)CCC(=O)CC1 (stereo not shown) [Example 198-3, N-{1-(3,5-Difluoro-benzyl)-2-hydroxy-3-[1-(3-isopropyl-phenyl)-4-oxo-cyclohexylamino]-propyl}-acetamide]  0.5

In order of rising Kp at 10 min:
1. CC(=O)NC(Cc1cc(F)cc(F)c1)C(O)CNC1(c2cccc(C(C)(C)C)c2)CCCCC1 (stereo not shown) [Example 198-1, N-[3-[1-(3-tert-Butyl-phenyl)-cyclohexylamino]-1-(3,5-difluoro-benzyl)-2-hydroxy-propyl]-acetamide]  3
2. CC(=O)NC(Cc1cc(F)cc(F)c1)C(O)CNC1(c2cccc(-c3ccsc3)c2)CCCCC1 (stereo not shown) [Example 198-4, N-{1-(3,5-Difluoro-benzyl)-2-hydroxy-3-[1-(3-thiophen-3-yl-phenyl)-cyclohexylamino]-propyl}acetamide]  3.7
3. CC(=O)NC(Cc1cc(F)cc(F)c1)C(O)CNC1(c2cccc(C(C)C)c2)CCC(=O)CC1 (stereo not shown) [Example 198-3, N-{1-(3,5-Difluoro-benzyl)-2-hydroxy-3-[1-(3-isopropyl-phenyl)-4-oxo-cyclohexylamino]-propyl}-acetamide]  8.4

— patent US20060014790A1, “Methods of treatment of amyloidosis using spirocyclohexane aspartyl-protease inhibitors” (priority 2004, published 2006)
